Test [1] concerns the target T1, SLC26A3 (Mus musculus, UniProt Q9WVC8).
T1 sequence (Q9WVC8 1-757): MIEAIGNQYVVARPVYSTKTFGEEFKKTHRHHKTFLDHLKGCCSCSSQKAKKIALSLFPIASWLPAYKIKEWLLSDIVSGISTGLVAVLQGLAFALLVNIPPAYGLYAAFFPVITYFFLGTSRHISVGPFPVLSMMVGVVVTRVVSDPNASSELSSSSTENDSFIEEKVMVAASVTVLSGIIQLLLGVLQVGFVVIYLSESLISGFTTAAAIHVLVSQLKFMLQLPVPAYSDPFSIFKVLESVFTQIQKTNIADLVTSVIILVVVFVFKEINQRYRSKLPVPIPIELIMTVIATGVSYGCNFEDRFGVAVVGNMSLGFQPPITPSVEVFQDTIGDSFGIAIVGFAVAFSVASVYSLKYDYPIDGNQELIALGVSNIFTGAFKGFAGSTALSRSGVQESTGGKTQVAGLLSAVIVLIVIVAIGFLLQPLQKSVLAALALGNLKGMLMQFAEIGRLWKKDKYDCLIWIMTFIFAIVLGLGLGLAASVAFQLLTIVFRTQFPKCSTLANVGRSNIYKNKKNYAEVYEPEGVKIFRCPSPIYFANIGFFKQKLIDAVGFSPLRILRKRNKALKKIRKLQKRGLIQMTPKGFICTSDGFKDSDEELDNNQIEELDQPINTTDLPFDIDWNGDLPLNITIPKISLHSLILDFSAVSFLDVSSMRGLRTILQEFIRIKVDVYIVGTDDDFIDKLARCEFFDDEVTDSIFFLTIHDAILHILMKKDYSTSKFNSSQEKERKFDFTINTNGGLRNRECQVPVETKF
The test is described as follows: SLC26A3 inhibition, concentration-dependence (high throughput screening and structure-activity studies). It is filed as cell-based.

Test [2] concerns the target T1, SLC26A3. The test is described as follows: Transepithelial oxalate transport in FRT monolayers expressing SLC26A3. In kind it is cell-based. Particulars: pretreatment 15 min, even at 0.1 μM; 500 μM oxalate gradient. The protocol:
In order to determine the effects of DRAinh-A270 on oxalate transport at physiologically relevant concentrations, transepithelial oxalate transport was measured in Fischer rat thyroid (FRT) monolayers expressing SLC26A3 (FRT-A3 cells) permeable filters and exposed to a 500 μM oxalate concentration gradient.
Oxalate transport rate plotted for studies done in FRT cells expressing SLC26A3 (FRT-A3) pretreated with indicated concentrations of DRAinh-A270 (or DMSO control) for 15 min prior to application of the oxalate gradient. FRT cells not expressing SLC26A3 (FRT-null) are shown as controls. Mean±S.E.M., n=6-12 wells per condition. One-way analysis of variance with post hoc Newman-Keuls multiple comparisons test, **p<0.01, ns: not significant.

For the next test, the target named is T2, DRA (Mus musculus, UniProt Q9WVC8).
T2 sequence (Q9WVC8 1-757): T1 sequence (Q9WVC8 1-757)
Put plainly: Extracellular action: reversal of DRA inhibition after washout. It is filed as cell-based. To be noted: cells incubated 10 min at 5 times IC50; measured at 20-30 second after washout. The method, then: Inhibition was then measured without washout and at 20-30 second after washout.

Test [3] has as its system mouse distal colonic loops. The test is described as follows: Oxalate absorption in closed distal colonic loops. In kind it is in vivo. To be noted: luminal 10 μM, 500 μM oxalate, 60 min. The protocol: To investigate DRAinh-A270 inhibition of intestinal oxalate transport, experiments were conducted using closed distal colonic loops in which SLC26A3 is the major apical membrane anion transporter. Colonic loops were injected with the solution containing 500 μM sodium oxalate and loop fluid was removed at 60 min to quantify remaining oxalate concentration. To avoid confounding effects of fluid absorption, Cl^−-free solution with amiloride (to block ENaC) was used.

pIC50: −log10 of the molar value.

As usually defined, the pIC50 is the negative decadic logarithm of the IC50, by convention in mol/L. A high value points to a low IC50. At SLC26A3 [1] (Class H, Table 4), `O=C(O)c1c(-c2ccccc2)oc2ccc(OCc3ccc(Cl)c(Cl)c3)cc12` [DRAinh-H0493] had a pIC50 of 5.64.
As for `Cc1c(CC(=O)O)c(=O)oc2c(C)c(OCc3cccc(I)c3)ccc12` [DRAinh-A270], the “increased oxalate transport in FRT-A3 cells” value at SLC26A3 [2] is “largely blocked”. Moreover, at DRA, the “reversal of inhibition after washout” value was “no reversal”. Besides, in test [3], the “reduction of oxalate absorption compared to vehicle control” value is listed as approximately 70%.
Compound `Cc1ccccc1COc1ccc2oc(-c3ccccc3)c(C(=O)O)c2c1` [DRAinh-H0696] had a negative-log IC50 (pIC50) at SLC26A3 [1] (Class H, Table 4) of 6.47.
Compound `COc1cccc(C(=O)Nc2nnc(S(=O)(=O)Nc3cccc(C)c3)s2)c1` [DRAinh-F0170] showed a pIC50 on SLC26A3 [1] (Class F, Table 2) of 6.51.
The compound `Cc1ccc(COc2ccc3oc(-c4ccccc4)c(C(=O)O)c3c2)cc1` [DRAinh-H0163] had a pIC50 at SLC26A3 [1] (Class H, Table 4) of 6.72.
Consider `Cc1cccc(NS(=O)(=O)c2nnc(NC(=O)c3cccc(C)c3)s2)c1` [DRAinh-F0165], for which, on SLC26A3 [1] (Class F, Table 2), the pIC50 is 6.33.
As to `Cc1ccc(N2C(=O)c3ccc(C(=O)Nc4ccccc4C(=O)O)cc3C2=O)cc1C` [DRAinh-E2333], the pIC50 on SLC26A3 [1] (Class E, Table 1) is 6.51.
The compound `CC(C)CN1C(=O)c2ccc(C(=O)Nc3ccccc3C(=O)O)cc2C1=O` [DRAinh-E0078] gave a pIC50 on SLC26A3 [1] (Class E, Table 1) of 6.16.

These data come from patent US20250073242A1, “SLC26A3 INHIBITORS AND USE THEREOF” (THE REGENTS OF THE UNIVERSITY OF CALIFORNIA, priority 2021, published 2025).
